Assay results: patent US20110263642A1, “METHODS FOR TREATMENT OF MULTIPLE SCLEROSIS” (FibroGen, Inc., priority 2008, published 2011)
Like-named read-outs stand apart in the source and are kept apart here.

Experiments:
[1] = test system: Oligodendrocytes (MO3.13 cells); assay: Ceramide-induced cell death of oligodendrocytes, Calcein AM viability; assay type: cell-based; conditions: for viability at 20 µM: ceramide 2.25 μM, compound 20 μM, non-ceramide control = 100
Excerpt: (See e.g., Craighead et al. (2000) Neurosci Lett. 278:125-8; Jana et al. (2007) J Neuroimmune Pharmacol. 2:184-93; Jana et al. (2009) J Neurol Sci. 278:5-15; Singh et al. (1998) J Biol. Chem. 273:20354-62.) In this model, addition of ceramide to cultured oligodendrocytes results in oxidative stress-induced cell death (i.e. apoptosis). The effect of compounds and methods of the present invention on the ability to improve oligodendrocyte viability following ceramide challenge was examined as follows. Oligodendrocytes (MO3.13 cells; Cedarlane Laboratories, Burlington, N.C.) were plated in 96-well culture dishes at a density of 4000 cells per well and cultured at 37° C., 10% CO2 in DMEM containing L-glutamine, sodium pyruvate, and 25 mM glucose (Mediatech Inc., Manassas, Va.) and supplemented with 10% FBS (Invitrogen Corporation, Carlsbad, Calif.). The next day, the plating media was removed and replaced with DMEM containing L-glutamine (Invitrogen Corporation, Carlsbad, Calif.) and supplemented with 5.5 mM glucose. Cells were then treated with vehicle (0.015% DMSO) or ceramide (Sigma-Aldrich, St. Louis, Mo.) plus vehicle (0.05% DMSO) or a compound of the invention (20 μM).
For cells treated longer than 3 days, half the media was removed after the third day of treatment and replaced with an equal volume of fresh treatment media containing vehicle (0.015% DMSO) or ceramide plus vehicle (0.05% DMSO) or a compound of the invention.
Cell viability was assessed 3, 4, and 5 days after treatment using the following protocol. Treatment media was removed from the cells and 100 ul of 1.67 uM Calcein AM reagent (Invitrogen Corporation, Carlsbad, Calif.) prepared in DMEM containing L-glutamine (Invitrogen Corporation, Carlsbad, Calif.) and supplemented with 5.5 mM glucose was added to each well. Cells were returned to 37° C. in a 10% CO2 incubator for approximately 30 minutes before assessing fluorescence (Ex 485 nm/Em 538 nm) using a microplate reader (Molecular Devices, Sunnyvale, Calif.). Images were taken of representative wells using a fluorescent microscope equipped with a camera (Nikon, Melville, N.Y.) and imaging software (Nikon, Melville, N.Y.).

[2] = test system: EAE animal model of multiple sclerosis; assay: EAE induced by MBP injection in Lewis rats, neurological disease scoring (first study, dosing day 3-21); assay type: in vivo; conditions: for reduction in disease severity compared to vehicle-treated control EAE animals: day 3 to day 21 after MBP injection
Excerpt: Experimental allergic encephalomyelitis (EAE, also referred to as experimental autoimmune encephalomyelitis) is currently the best animal model of human multiple sclerosis (MS). In this model, induction of EAE occurs following, for example, injection of spinal cord homogenate or central nervous system (CNS) antigens, such as myelin basic protein (MBP), myelin olidgodendrocyte glycoprotein, or proteolipid protein. Approximately 10 days following injection of CNS antigens, susceptible rats (e.g., Lewis rats) develop a progressive paralysis similar to that observed in humans.
Female Lewis rats of approximately 220 grams were used in this study (Janvier; Le Genest St Isle, France). Compounds of the invention were formulated in water containing 10% cremophor and 60 mM L-histidine to achieve a final concentration of either 2 mg/ml or 6 mg/ml. Dexamethasone was dissolved in saline at a concentration of 0.1 mg/ml.
Induction of EAE by injection with myelin basic protein (MBP) antigen was performed as follows. Prior to injection with the MBP antigen (day 0), rats were anaesthetized by injection of 60 mg/kg of ketamine (Imalgene500®, Rhone Mérieux, Lyon, France) plus 4 mg/kg of xylazine (Rompum 2%, Bayer Pharma, Kiel, Germany). Rats were then injected in the hind footpad with a total volume of 100 μl of MBP inoculum solution per paw containing 100 μg of MBP antigen (Sigma, L'Isle d'Abeau Chesnes, France) emulsified (1:1) containing incomplete Freund's adjuvant (IFA) (Sigma, L'Isle d'Abeau Chesnes, France) and 500 μg of heat-inactivated mycobacterium tuberculosis (strain H 37 RA from Difco). Control rats were similarly injected with an equivalent volume of inoculum without MBP. […]
Neurological scoring was performed daily from day 7 to day 21 following BP injection. […] Analysis of variance (ANOVA) was performed on data from the measured (clinical score) or the calculated (severity score) parameters. […]
(§1) Cumulative EAE disease score, used as a measure of overall disease severity, was determined by adding all disease/neurological scores for each animal over the time course of the experiment.

[3] = test system: EAE animal model of multiple sclerosis; assay: EAE induced by MBP injection in Lewis rats, prophylactic versus treatment dosing (second series); assay type: in vivo
Description: In another series of experiments, the effectiveness of compounds and methods of the present invention on treating established multiple sclerosis in an EAE model was examined as follows. EAE was induced in female Lewis rats (200-220 g) as described above. Compound of the invention (30 mg/kg) or vehicle control was administered p.o. daily from day 3 to day 21 following MBP injection (prophylactic group) or from the day first symptoms appeared to day 21 (treatment group). Dexamethasone (1 mg/kg) was administered subcutaneously at 1 mg/kg from day 8 to day 12 following MBP injection.
Neurological scoring was performed daily from day 7 to day 21 following […]. Grading of disease severity (i.e., disease score) was based on the following observations performed by two different observers: 0=no abnormality; 1=distal weakness of the tail; 2=complete weakness of the tail; 3=mild weakness in one or two hindlimbs; 4=moderate paraparesia of one or two hindlimbs; 5=total paraplegia. Analysis of variance (ANOVA) was performed on data from the measured (clinical score) or the calculated (severity score) parameters. Fisher's Protected Least Significant Difference was used for pairwise comparisons. p value≦0.05 were considered significant.
as §1

N#Cc1nc(C(=O)NCC(=O)O)c(O)c2c(Oc3ccccc3)cccc12 [Compound A, [(1-Cyano-4-hydroxy-5-phenoxy-isoquinoline-3-carbonyl)-amino]-acetic acid]
viability at 20 µM ([1]; 72 h, read-out: % Viable at Day 3): 82% | viability at 20 µM ([1]; 96 h, read-out: % Viable at Day 4): 46% | viability at 20 µM ([1]; 120 h, read-out: % Viable at Day 5): 33% | increase in viability compared to vehicle treated oligodendrocytes ([1]; ceramide-challenged, day 5): 3 fold | reduction in disease severity compared to vehicle-treated control EAE animals ([2]; 10 mg/kg p.o. daily): 17% | reduction in disease severity compared to vehicle-treated control EAE animals ([2]; 30 mg/kg p.o. daily, p<0.05): 46% | cumulative disease score (AUC) ([2]; either 10 mg/kg or 30 mg/kg p.o. daily, day 3-21, FIG. 2): reduced | cumulative disease score (AUC) ([3]; 30 mg/kg p.o., both prophylactic group and treatment group, FIGS. 4A and 4B): reduced | reduction in disease severity compared to vehicle-treated control EAE animals ([3]; prophylactic group: 30 mg/kg p.o. daily, day 3 to day 21): 31% | reduction in disease severity compared to vehicle-treated control EAE animals ([3]; treatment group: 30 mg/kg p.o. daily, first symptom to day 21, p<0.05): 19%
